Values of other authors as cited in patent publication US20250114486A1, “MARKED FATTY ACID DERIVATIVE, PRECURSOR COMPOUND THEREOF, AND USE THEREOF IN CONTRAST AGENT” (BEIJING NORMAL UNIVERSITY, priority 2022, published 2025).
Read-outs that look alike come from different tables or passages of the source.

Conditions: rats, reference 4, cited from earlier work

CC(CCCCCCCCCCCCc1ccc([123I])cc1)CC(=O)O (centres unmarked) [[^123I]BMIPP]
Heart-to-Lungs ratio (30 min after injection): 3.16
Heart-to-Blood ratio (30 min post-injection): 2.27
absolute myocardial uptake value (30 min post-injection): 3.63 % ID/g
Heart-to-Liver ratio (60 min after injection): 2.22
Heart-to-Lungs ratio (60 min after injection): 3.52
Heart-to-Blood ratio (60 min post-injection): 2.51
absolute myocardial uptake value (60 min post-injection): 4.26 % ID/g
Heart-to-Liver ratio (240 min after injection): 2.39
Heart-to-Lungs ratio (240 min after injection): 2.49
Heart-to-Blood ratio (240 min post-injection): 2.01
absolute myocardial uptake value (240 min post-injection): 2.27 % ID/g
